Assay results published in patent US20160287646A1, “MACROALGAE COMPOSITIONS, PROCESSES FOR PREPARATION THEREOF, AND USES IN SPORTS NUTRITION” (OmniActive Health Technologies (Canada) Limited, priority 2015, published 2016).

How the values were obtained:
H295R cells = test: Cortisol production immunoassay in H295R cells; format: cell-based, human; details: 24 h incubation
Method: It is a human adrenal cell line that presents a steroid secretion pattern and regulation similar to primary cultures of adrenal cells.
Cells were then incubated in the presence or absence of macroalgae composition for 24 h before assessing cortisol production.
To evaluate the effect of treatment with macroalgae composition on cortisol concentrations in H295R cells, the DetectX® (Arbor Assays) immunoassay was utilized. A cortisol standard was provided to generate a standard curve for the assay and all samples were read off the standard curve. Standards or samples were pipetted into a clear microtiter plate coated with an antibody. A cortisol-peroxidase conjugate was added to the standards and samples in the wells. The binding reaction was initiated by the addition of a monoclonal antibody to cortisol to each well. After 1 hour incubation, the plate was washed and substrate was added. The substrate reacted with the bound cortisol-peroxidase conjugate. After a short incubation, the reaction was stopped and the intensity of the generated color was detected in a microtiter plate reader capable of measuring 450 nm wavelength. The concentration of cortisol in the samples was then calculated.

C2C12 cells [1] = test: Glycogen synthesis colorimetric assay in differentiated C2C12 cells; format: cell-based, mouse; details: for Glycogen Content - glucose + insulin: 30 mM glucose + 100 nM insulin, compared to non-treated samples (glucose only 100.0); for Glycogen Content - glucose only: 30 mM glucose, compared to non-treated samples (100.0)
Method: (§1) C2C12 cells (ATCC® CRL-1772) were seeded in 24- or 96-well culture plates as undifferentiated myoblasts and grown to 100% confluency in ATCC-formulated Dulbecco's Modified Eagle's Medium (DMEM) supplemented with 10% heat-inactivated fetal bovine serum (FBS). […] Differentiation medium consisted of ATCC-formulated DMEM supplemented with 2% heat-inactivated horse serum and was changed daily during the differentiation process. Cell culture conditions were maintained at 37° C. in a humidified atmosphere of 5% CO2/95% air. After 5 days of differentiation, cells were incubated in the presence or absence of macroalgae composition (with control). Cells were treated with macroalgae compositions and also control samples to check effect on said biomarkers. The compositions and control samples used are mentioned in the respective table, showing results of the test. The effect of select macroalgae compositions were assessed using the following assays:
(§2) Glucose uptake in C2C12 cells was determined by bioluminescent assay (Promega), based on the detection of 2-deoxyglucose-6-phosphate (2DG6P). When […] to cells, it is transported across the membrane and rapidly phosphorylated. However, further modification is not possible, resulting in accumulation within the cell. Addition of a 2DG6P detection reagent, leading to the generation of NADPH from 2DG6P, luciferin from NADPH, and light from luciferin, allows for detection of a bioluminescent signal. Overall, the luminescent signal is proportional to the concentration of 2DG6P, and thus the rate of glucose uptake. Glycogen synthesis was determined in cell culture lysates from differentiated C2C12 cells using a colorimetric assay kit from BioVision Inc. This involves the addition of glucoamylase to the samples that hydrolyzes glycogen to glucose; the glucose is then oxidized to form an intermediate that reduces OxiRed, forming a colored product with strong absorbance at 570 nm.

C2C12 cells [2] = test: Glucose uptake bioluminescent assay (2DG6P) in C2C12 cells; format: cell-based, mouse; details: for Glucose Uptake - glucose + insulin: 25 mM glucose + 1 uM insulin, compared to non-treated samples (glucose only 100.0)
Method: as §1, §2

[3] = tested on: insulin-like growth factor-1 (IGF-1); test: IGF-1 ELISA in differentiated C2C12 cells; format: cell-based, mouse; details: cell culture supernatants
Method: (§3) Mouse skeletal myoblasts C2C12 cells were used as a cell model to assess mitochondrial function and IGF-1 expression. Cells were cultured as undifferentiated myoblasts in high-serum growth media DMEM (Dulbecco's Modified Eagle Medium), supplemented with 10% FBS (Fetal bovine serum) and 1% penicillin/streptomycin. Cells were grown to full confluency at 37° C. in a humidified incubator with 5% CO2.
To evaluate the effect of treatment with macroalgae composition on insulin-like growth factor-1 (IGF-1) concentrations in differentiated C2C12 cells, the mouse IGF-1 enzyme-linked immunosorbent assay (ELISA) kit (Sigma) was utilized. The kit provides a quantitative measurement of mouse IGF-1 in cell culture supernatants by employing an antibody specific coated 96-well plate. Standards and samples were added to the coated plate and any IGF-1 present in the sample bound to the immobilized antibody. After washing away any unbound antibody, HRP-conjugated streptavidin was added to the wells. The wells were washed again, followed by addition of a colorimetric TMB reagent. Color developed in proportion to the amount of bound IGF-1. Addition of a stop solution changed the color from blue to yellow, and the color intensity was read at A450 with a microplate reader. Blank-corrected unknown sample protein concentrations were then extrapolated from a known standard curve.

PGC-1α = test: PGC-1alpha ELISA in differentiated C2C12 cells; format: cell-based, mouse; details: overnight treatment, extracts 100 ug/mL, caffeine 500 uM, resveratrol 100 uM, control 100.01
Method: as §1, with “assays: Concentrations of PGC-1α in differentiated C2C12 cells as a result of treatment with macroalgae composition were determined by ELISA (MyBiosource). Following overnight treatment, cell lysates were collected and centrifuged to remove cellular debris. […] The amount of PGC-1α captured by the anti-PGC-1α antibody was determined using a biotinylated-IgG antibody/HRP-streptavidin detection system.” for “assays:”

C2C12 cells [4] = test: ATP production colorimetric assay in C2C12 myotubes; format: cell-based, mouse; details: extracts 100 ug/mL, caffeine 500 uM, creatine 1 uM, control 99.99
Method: as §1, with “Cells were treated with macroalgae compositions and also control samples to check effect on said biomarkers. The compositions and control samples used are mentioned in the respective table, showing results of the test.” left out
To evaluate the effect of macroalgae composition on ATP levels, colorimetric assay kit (Sigma-Aldrich, St. Louis, Mo.) was used, which is an enzyme-linked approach that involves the conversion of ATP in the test sample to ADP via the action of glycerol kinase which catalyses the transfer of the phosphate group to glycerol. The reaction was monitored by use of colorimetric product whose concentration varies proportional to the amount of ATP present. […] After 30 minutes, the absorbance at 570 nm will be measured using a microplate reader, and ATP concentrations will be extrapolated from a standard curve.

C2C12 cells [5] = test: Mitochondrial oxygen consumption (MitoXpress probe) in differentiated C2C12 cells; format: cell-based, mouse; details: macroalgae composition 100 ug/ml
Method: as §3
Extracellular oxygen consumption in differentiated C2C12 cells was measured by assessing phosphorescence of a porphyrin-based, water soluble, oxygen sensitive probe (MitoXpress®-Xtra-HS, Luxcel Biosciences). Probe fluorescence is quenched by molecular oxygen (O2), resulting in lower probe signal. As cellular respiration reduces the concentration of O2, probe signal increases. The rate of this increase is related to the rate of cellular oxygen consumption. C2C12 cells were seeded in 96-well culture plates at a density of 2×10^4 cells/mL, induced to differentiate, and incubated with MitoXpress probe ([…] the presence or absence of macroalgae composition (100 ug/ml). High sensitivity mineral oil was added (100 μL/well) to increase assay sensitivity by minimizing interference from ambient O2. Probe fluorescence was measured (excitation 380 nm, emission 645 nm) using a fluorescence plate reader.

C2C12 cells [6] = test: Mitochondrial mass (NAO probe fluorescence) in differentiated C2C12 cells; format: cell-based, mouse; details: fluorescent intensity relative to untreated control
Method: as §3
The effect of treatment with macroalgae composition on mitochondrial mass was assessed by measuring changes in fluorescent intensity in differentiated C2C12 cells. The nonylacridine orange (NAO) probe binds to cardiolipin in all mitochondria, regardless of their energetic state, providing a measure of mitochondrial mass and an indication of mitochondrial biogenesis. C2C12 cells were seeded in 96-well culture plates at a density of 2×10^4 cells/mL, induced to differentiate, and pre-treated with or without select macroalgae composition and controls. […] Probe fluorescence was measured (excitation 380 nm, emission 645 nm) using a fluorescence plate reader. Fluorescent intensity relative to untreated control was then calculated. To standardize probe fluorescence to protein content of the cells, total protein content (in μg) was assessed by bicinchoninic acid (BCA) using bovine serum albumin as standard.

Akt = test: BioPlex cell signaling assay, relative phosphorylation of Akt (PKB) in C2C12 cells; format: cell-based, mouse; details: differentiated C2C12 cells pre-treated 2 hours; ratio of fluorescence of phospho-protein to total protein
Method: (§4) The effects of macroalgae composition on biomarkers of sport nutrition based on protein synthesis platform were evaluated, wherein the compositions were tested with an initial MTT assay (MIT is a name of dye 3-(4,5-dimethylthiazol-2-yl)-2,5-diphenyltetrazolium bromide) to determine cytotoxicity and establish dose range for testing.
(§5) Test inputs chosen for the protein synthesis assay platform were assessed using BioPlex (BioRad) cell signaling assays, based on the principle of the sandwich ELISA. Capture antibodies directed against the desired biomarker were covalently coupled to magnetic beads, which reacted with the sample containing the biomarker of interest. After a series of wash steps to remove any unbound protein, a biotinylated detection antibody was added to create a “sandwich” complex. The final detection complex was formed with the addition of a streptavidin-phycoerythrin (SA-PE) conjugate, which serves as a fluorescent indicator. […] The beads were then re-suspended in assay buffer and read on the BioPlex MAGPIX system. […]
(§6) Phospho-PKB/PKB, Phospho-mTOR/mTOR, Phospho-p70S6k/p70S6k, their effects were more pronounced than creatine or whey protein. In Table 3 below, Phospho-PKB/PKB, Phospho-mTOR/mTOR, and Phospho-p70S6k/p70S6k are expressed as a ratio of the fluorescence of the phospho-protein divided by the fluorescence of the total protein.

[7] = tested on: mTOR (the mammalian target of rapamycin); test: BioPlex cell signaling assay, relative phosphorylation of mTOR in C2C12 cells; format: cell-based, mouse; details: differentiated C2C12 cells pre-treated 2 hours; ratio of fluorescence of phospho-protein to total protein
Method: as §4, §5, §6

p70S6k = test: BioPlex cell signaling assay, relative phosphorylation of p70S6k in C2C12 cells; format: cell-based, mouse; details: differentiated C2C12 cells pre-treated 2 hours; ratio of fluorescence of phospho-protein to total protein
Method: as §4, §5, §6

Molecule | Cortisol (H295R cells) | Glycogen Content - glucose + insulin (C2C12 cells [1]) | Glycogen Content - glucose only (C2C12 cells [1]) | Glucose Uptake - glucose + insulin (C2C12 cells [2]) | IGF-1 [3] | PGC1-alpha production, Relative to Control (PGC-1α) | ATP production, Relative to Control (C2C12 cells [4]) | Mitochondrial Oxygen consumption (C2C12 cells [5]) | Mitochondrial Mass (C2C12 cells [6]) | Phospho-PKB/PKB (Akt) | Phospho-mTOR/mTOR [7] | Phospho-p70S6k/p70S6k (p70S6k) | Glucose (G) Uptake - glucose only (C2C12 cells [2]; 25 mM glucose, compared to non-treated samples (100.0))
Cn1c(=O)c2c(ncn2C)n(C)c1=O [Caffeine] | 65 | 164.7% | 115.3% | 198.7% | 130 | 192.96 | 225.83 | 157 | 146 |  |  |  | 
Insulin: control in protein synthesis assay; co-stimulus in glucose uptake and glycogen assays |  | 153.6% |  | 189.5% |  |  |  |  |  | 315 | 311 | 241 | 
CN(CC(=O)O)C(=N)N [Creatine] |  |  |  |  |  |  | 233.17 |  |  | 191 | 192 | 162 | 
CC(C)C[C@H](N)C(=O)O [Leucine] | 65.3 | 158.2% | 111.1% | 203.7% | 127 |  |  | 144 | 157 |  |  |  | 
Oc1ccc(C=Cc2cc(O)cc(O)c2)cc1 [Resveratrol] |  | 223.9% | 142.9% | 291.0% |  | 220.96 |  |  |  |  |  |  | 132.4%
